In PubChem BioAssay AID179 (DTP/NCI, 2004):
Activity calls are given as the source filed them.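 The calls were made as follows: active = compounds giving half or more protection of infected cells from virus-caused growth loss, again on retest; inactive = the rest.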

Tested on: CEM cells HIV-1 protection, formazan growth assay
Assay: NCI AIDS Antiviral Assay
Details: for IC50: measured here: growth of uninfected CEM cells
Procedure, shortened: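 Human CEM cells, uninfected and HIV-1-infected, exposed to five drug concentrations; growth measured by soluble formazan assay and scored as percent protection from infection, with protecting compounds retested.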

Structure (SMILES): O=C1COc2cc3c(cc2N1)SCC(=O)N3
- EC50: > 42.7 µM
- IC50: > 42.7 µM

Structure (SMILES): C#CC1(O)CCC2[C@@H]3CCc4cc(Oc5nc(F)nc(-c6c7ccccc7cn6C)n5)ccc4C3CC[C@@]21C (stereo partly specified)
- EC50: > 10 µM
- IC50: > 10 µM

Structure (SMILES): CCCCCCCCCCCCCCCCCCC(C(=O)O)C(=O)O
- EC50: > 708 µM
- IC50: 347 µM

Structure (SMILES): COc1ccc(-c2c(C#N)c(N)nc3c2CCS(=O)(=O)c2ccccc2-3)cc1
- EC50: > 200 µM
- IC50: > 200 µM

Structure (SMILES): O=c1cc(-c2ccccc2)nc(/C=C(\O)c2ccncc2)n1-c1ccccc1
- EC50: > 3.98 µM
- IC50: > 3.98 µM

Structure (SMILES): COC1=C(OC)C(=O)c2cc(C)c(=O)c(C)cc2C1=O
- EC50: > 13.2 µM
- IC50: 3.98 µM

Structure (SMILES): O=C1CCC(c2ccccc2)C(O)(C(=O)O)C1 (stereo unspecified)
- EC50: > 389 µM
- IC50: > 389 µM

Structure (SMILES): C=C(CC)C(=O)c1ccc(OCC(=O)O)c(Cl)c1Cl
- EC50: > 200 µM
- outcome: inactive
- IC50: 43.7 µM

Structure (SMILES): O=C1NC2C3CC(c4ccccc43)C12 (stereo unspecified)
- EC50: > 832 µM
- IC50: > 832 µM

Structure (SMILES): CC1(C)C2CCC(CN)(C2)C1O (stereo unspecified)
- EC50: > 200 µM
- IC50: > 200 µM

Structure (SMILES): COc1cc(/C=C(\C#N)c2ccccn2)cc(Br)c1O
- EC50: > 200 µM
- IC50: 28.2 µM

Structure (SMILES): N=c1oc2ccccc2cc1-c1nc2ccccc2[nH]1
- outcome: inactive

Structure (SMILES): O=[N+]([O-])c1cccc(-c2nc3ccccc3[nH]2)c1
- outcome: inactive

Structure (SMILES): C=CC1(C)CCC2C(=CCC3C2(C)CC(O)C(O)C3(C)COC2OC(C(=O)O)C(O)C(O)C2O)C1 (stereo unspecified) (tested in a mixture with another compound)
- EC50: > 100 µM
- IC50: > 100 µM

Structure (SMILES): O=C(/C=C(\O)c1ccccc1)C(=O)NNc1ccc([N+](=O)[O-])cc1[N+](=O)[O-]
- EC50: > 200 µM
- IC50: 60.3 µM

Structure (SMILES): CCOC(=O)C(Cc1ccccc1)C(=O)OCC
- EC50: > 105 µM
- IC50: > 105 µM

Structure (SMILES): O=c1c2c3c(sc2nc2n1N=CN(c1ccc(F)cc1)C2)CCCC3
- EC50: > 200 µM
- IC50: > 200 µM

Structure (SMILES): CCCC(NCCNC(CCC)C(=O)O)C(=O)O (stereo unspecified)
- EC50: > 589 µM
- IC50: > 589 µM

Structure (SMILES): CCNc1ncnc2c1ncn2C1OC(CO)CC1F (stereo unspecified)
- EC50: > 224 µM
- IC50: > 224 µM

Structure (SMILES): CCC(C)N1CN(c2ccccc2)C2(CCN(CCCSc3ccc(F)cc3)CC2)C1=O (stereo unspecified)
- EC50: > 200 µM
- IC50: 4.17 µM

Structure (SMILES): COc1ccc(/C=C(/C(C)=O)c2ccccc2)cc1
- EC50: > 74.1 µM
- IC50: > 74.1 µM

Structure (SMILES): O=C(O)CCCn1nnc2c(=O)[nH][nH]c(=O)c21
- EC50: > 200 µM
- IC50: > 200 µM

Structure (SMILES): C[C@@]1(C(=O)O)CCC[C@@]2(C)C1[C@H](OC(=O)c1ccccc1)CC1CC3CC12CC[C@@]3(C)O (stereo partly specified)
- EC50: > 282 µM
- IC50: 58.9 µM

Structure (SMILES): CC(C)S(=O)(=O)ON1C(=O)c2ccc(N(C)C)cc2C1=O
- EC50: > 83.2 µM
- IC50: > 83.2 µM

Structure (SMILES): COC(=O)CCc1ccc2c(c1)C(=O)CC2
- EC50: > 200 µM
- IC50: > 200 µM

Structure (SMILES): c1ccc2c(CC[n+]3cccc(C4OCCO4)c3)c[nH]c2c1
- EC50: > 661 µM
- IC50: 110 µM

Structure (SMILES): CCCCNC(=S)Nc1nc(C(=O)NNC(=O)c2ccccc2)cs1
- EC50: > 200 µM
- IC50: 11.2 µM

Structure (SMILES): O=C(Nc1ccc(Cl)c(Cl)c1)C1C(=O)N(c2ccc(Cl)c(Cl)c2)C(=O)/C1=N\O (stereo unspecified)
- outcome: inactive

Structure (SMILES): CN(CC#N)C(=O)Cc1ccc([N+](=O)[O-])cc1
- EC50: > 200 µM
- IC50: > 200 µM

Structure (SMILES): O=C(c1ccccc1)c1c2ccccn2c2cccc[n+]12
- EC50: > 200 µM
- IC50: 53.7 µM

Structure (SMILES): O=C(N[C@H]1c2ccsc2/C(=N/O)[C@H]1O)C(F)(F)F
- EC50: > 200 µM
- IC50: > 200 µM

Structure (SMILES): Cc1cc(C)nc(NS(=O)(=O)c2ccc(Nc3c4ccccc4nc4c(C(=O)Nc5ccc(S(=O)(=O)N=C(N)N)cc5)cccc34)cc2)n1
- EC50: 49 µM
- IC50: 51.3 µM

Structure (SMILES): CC(=O)NCCSSCCSC(=S)N1CCCCC1
- EC50: > 200 µM
- IC50: 33.9 µM

Structure (SMILES): Cc1ccc([C@H]2CC(=O)C[C@H](c3ccc(C)cc3)C23C(=O)c2ccccc2C3=O)cc1
- EC50: > 200 µM
- IC50: > 200 µM

Structure (SMILES): O=NC1C2C=CC(C2)C1Cl (stereo unspecified)
- EC50: > 200 µM
- IC50: > 200 µM

Structure (SMILES): CCOC(=O)c1nc2ccc(C(F)(F)F)cc2nc1Nc1ccc(Cl)c(Cl)c1
- outcome: inactive

Structure (SMILES): O=[N+]([O-])c1ccc(-[n+]2ccc3ccccc3c2)c([N+](=O)[O-])c1
- EC50: > 759 µM
- IC50: 4.79 µM

Structure (SMILES): CCN(CC)c1cc2oc(=O)cc(C)c2cc1[N+](=O)[O-]
- EC50: > 95.5 µM
- IC50: 40.7 µM

Structure (SMILES): Cc1cn(C(Cc2ccccc2)OCCN2C(=O)c3ccccc3C2=O)c(=O)[nH]c1=O (stereo unspecified)
- EC50: > 200 µM
- IC50: > 200 µM

Structure (SMILES): Cc1c2cccc1CSCc1cccc(c1C)CSC2
- EC50: > 123 µM
- IC50: > 123 µM

Structure (SMILES): CC(=O)OCc1cc(OC(C)=O)c2cc3c(OC(C)=O)cccc3c(OC(C)=O)c2c1
- EC50: > 200 µM
- IC50: 28.2 µM

Structure (SMILES): Fc1cccc(C2SCc3nc4ncccc4n32)c1 (stereo unspecified)
- EC50: > 132 µM
- IC50: > 132 µM
